Values of other authors as cited in publication PMC7123690 (HCV: The Journey from Discovery to a Cure, 2018).
Like-named read-outs stand apart in the source and are kept apart here.

Assays:
[1] = rat
CYP 2C9 = details: recombinant CYP 2C9
[2] = cynomolgus monkey LMs
[3] = test system: GT-1 and GT-4 replication; details: GT-1 and GT-4 replicons
HCV NS3/4A GT-1a enzyme = details: read-out: IC50 GT-1a enzyme
[4] = RLM
[5] = dog LM
[6] = P-gp knockout mice
HCV GT-1 = HCV GT-1 patients
[7] = HLM
HCV = details: combined with IFN-α, ribavirin (52), 2 and 3
CYP 2C19 = details: recombinant CYP 2C19
CYP 2D6 = details: recombinant CYP 2D6
CYP 1A2 = details: recombinant CYP 1A2
[8] = not given; remark: listed apart in the source
isolated rabbit hearts = details: for effects on HR and SNRT: 60 min perfusion
[9] = test system: individual recombinant CYP enzymes
[10] = not given; remark: listed apart in the source
[11] = dog
HCV GT-1b replicon = details: read-out: EC50 GT-1b replicon
[12] = rat, dog, and cynomolgus monkey plasma
[13] = test system: cardiac ion channel and receptor screens
GT-1 HCV = details: 120 mg dose, 12-h post-dose, GT-1 HCV patients
[14] = test system: canine parainfluenza virus
[15] = test system: bovine viral diarrhea virus
[16] = not given; remark: listed apart in the source
[17] = not given; remark: listed apart in the source
[18] = anesthetized rabbits
[19] = dog; remark: listed apart in the source
[20] = 60-min perfusion protocol, 10 μM, similar to vehicle control

C=C[C@@H]1C[C@]1(NC(=O)[C@@H]1C[C@@H](Oc2ncc(OC)c3ccc(Cl)cc23)CN1C(=O)[C@@H](NC(=O)OC(C)(C)C)C(C)(C)C)C(=O)NS(=O)(=O)C1CC1 [Compound 1, Asunaprevir]
direct excretion into the bile [1]: 9 % of the dose | liver level 24-h post-dose ([1]; oral): 15.2 µM | IC50 (CYP 3A4; CYP 3A4, substrate probe 7-benzyloxy-trifluoromethylcoumarin (BFC)): 29 µM | IC50 (CYP 3A4; CYP 3A4, substrate probe benzyloxyresorufin (BZR)): 8 µM | IC50 (CYP 3A4; CYP 3A4, substrate probe midazolam): 27 µM | IC50 (CYP 2C9): > 40 µM | turnover in LMs [2]: 50 ± 22 pmol/min/mg | EC50 [3]: < 0.005 µM | IC50 (HCV NS3/4A GT-1a enzyme): 0.001 µM | turnover in LMs [4]: 4.9 pmol/min/mg | turnover in LMs [5]: 4.7 pmol/min/mg | oral bioavailability [6]: > 100% | mean plasma HCV RNA decline (HCV GT-1; single 50 mg dose): 0.64 log10 IU/mL | mean plasma HCV RNA decline (HCV GT-1; single 200 mg dose): 2.26 log10 IU/mL | mean plasma HCV RNA decline (HCV GT-1; single 600 mg dose): 2.87 log10 IU/mL | turnover in LMs [7]: 5.8 ± 1.8 | activity in combination studies (HCV): additive or synergistic activity | permeability in PAMPA (pH = 5.5): > 473 nm/s | permeability in PAMPA (pH = 7.4): > 492 nm/s | IC50 (CYP 2C19): > 40 µM | IC50 (CYP 2D6): > 40 µM | IC50 (CYP 1A2): > 40 µM | adverse events (AEs) ([8]; NHVs, single doses 10-1,200 mg oral suspension): generally mild to moderate and comparable to the placebo controls | cardiac safety analysis ([8]; short duration SAD study): no evidence of an increased risk of adverse cardiac events | maximal increase in SNRT (isolated rabbit hearts; [20]): 14% | maximal reduction of heart rate (isolated rabbit hearts; [20]): 10% | % HR change (isolated rabbit hearts; perfusion concentration 10 μM): −4% | % SNRT change (isolated rabbit hearts; perfusion concentration 10 μM): 5% | metabolic turnover by recombinant CYP enzymes [9]: significant metabolic turnover only by CYP 3A4 | plasma protein binding ([10]; human plasma): 98.8% | direct excretion into the bile [11]: 22 % of the dose | EC50 (HCV GT-1b replicon): 0.006 µM | plasma protein binding [12]: 97.2–98.8%

C=C[C@@H]1C[C@]1(NC(=O)[C@@H]1C[C@@H](Oc2nccc3cc(OC)ccc23)CN1C(=O)[C@@H](NC(=O)OC(C)(C)C)C(C)(C)C)C(=O)NS(=O)(=O)C1CC1 [Compound 30]
oral bioavailability [1]: 18% | plasma t 1/2 [1]: 4.4 h | plasma level 24-h post-dose ([1]; oral 20 mpk): 8 nM | outcome of cardiac ion channel and receptor screens [13]: failed to identify a biochemical target | mean decline in viral load (GT-1 HCV): 1.8 log10 IU/mL | activity in cell culture replication assay [14]: inactive | activity in cell culture replication assay [15]: inactive | observed cardiovascular effects ([16]; conscious telemetrized dogs, two 15 mpk doses): a reduction in heart rate and prolongation of the PR interval | plasma exposure at which CV effects occurred ([16]; estimated from non-telemeterized animals): approximately 12 μM | terminal t 1/2 ([17]; NHVs, single oral doses 10-120 mg): 4 to 8 h | effects on cardiac function (electrocardiographic changes) ([17]; one NHV and one HCV-infected patient, 120 mg dose): transient mild bradycardia, PR interval prolongation, and junctional rhythm disturbances | decline in HR ([18]; IV 1, 3 and 10 mpk each infused over 5 min): 32 bpm | reduction in blood pressure from baseline ([18]; not drug related, also seen in vehicle controls): 14–23 mmHg | decline in HR (isolated rabbit hearts; 3 μM, ~12 min perfusion): −15 bpm | decline in HR (isolated rabbit hearts; 10 μM, ~12 min perfusion): −23 bpm | effects on atrioventricular conduction time or QRS interval (isolated rabbit hearts; 0.3-10 μM): no effects | increase in SNRT (isolated rabbit hearts; 3 and 10 μM, ~12 min perfusion): ≥ 425 ms | effects on HR and SNRT (isolated rabbit hearts; 0.1 μM): absent | effects on HR and SNRT (isolated rabbit hearts; 0.3 μM): attenuated | effects on HR and SNRT (isolated rabbit hearts; 1 μM): effects on HR and SNRT were observed | % HR change (isolated rabbit hearts; perfusion concentration 10 μM): −25% | affinity for plasma proteins ([10]; human): 99.1% | activity in cell culture replication assay (HIV-1): inactive | oral bioavailability ([11]; PO, 1 mpk): 23% | affinity for plasma proteins [19]: 98.2% | EC50 (HCV GT-1b replicon): 0.012 µM
